Measured values: patent publication US12193972B2, “Intraocular drug delivery systems and methods of use” (SpyGlass Pharma, Inc., priority 2022, dated 2025)

Legend:
[1] = daily release or elution of Bimatoprost in vitro versus time (FIG. 8); format: physicochemical; conditions: four-hundred-day study
[2] = Bimatoprost sampled in the aqueous humor of dogs over time (FIG. 9); format: in vivo
From the text: In this example, there was a low dose group of dogs (Grp 1), a mid-dose group of dogs (Grp 2), a high dose group of dogs (Grp 3), and a placebo group of dogs (Grp 4).

For `CCNC(=O)CCC/C=C\C[C@@H]1[C@@H](/C=C/[C@@H](O)CCc2ccccc2)[C@H](O)C[C@@H]1O` [Bimatoprost], the “release kinetics over the study” value [1] was “essentially a zero-order and/or a steady state elution rate”, the average release rate ([1]; drug delivery component) was “less than 0.100 micrograms per day” and the “level of Bimatoprost in the aqueous humor, elution kinetics” value ([2]; low dose (Grp 1), mid-dose (Grp 2) and high dose (Grp 3) groups, study period of about one hundred thirteen days) was “zero-order elution rate”. For the same molecule, the “mean measurements of Bimatoprost in the aqueous humor, dose dependence” value ([2]; low, mid and high dose groups) was “increased with the higher doses”.
